The source made the active and inactive calls.
Columns and labels:
[1] = target: Calpain-2 catalytic subunit (Sus scrofa, UniProt P43367); assay: pig calpain II inhibitor potency, dose response, biochemical, fluorogenic peptide substrate (AID 1420); format: functional
[2] = target: T1, Zinc finger protein mex-5 (Caenorhabditis elegans, UniProt Q9XUB2); assay: MEX-5/TCR-2 RNA interaction inhibitors, dose response, biochemical, C. elegans, fluorescence polarization (AID 1960)
T1 sequence (Q9XUB2 whole entry): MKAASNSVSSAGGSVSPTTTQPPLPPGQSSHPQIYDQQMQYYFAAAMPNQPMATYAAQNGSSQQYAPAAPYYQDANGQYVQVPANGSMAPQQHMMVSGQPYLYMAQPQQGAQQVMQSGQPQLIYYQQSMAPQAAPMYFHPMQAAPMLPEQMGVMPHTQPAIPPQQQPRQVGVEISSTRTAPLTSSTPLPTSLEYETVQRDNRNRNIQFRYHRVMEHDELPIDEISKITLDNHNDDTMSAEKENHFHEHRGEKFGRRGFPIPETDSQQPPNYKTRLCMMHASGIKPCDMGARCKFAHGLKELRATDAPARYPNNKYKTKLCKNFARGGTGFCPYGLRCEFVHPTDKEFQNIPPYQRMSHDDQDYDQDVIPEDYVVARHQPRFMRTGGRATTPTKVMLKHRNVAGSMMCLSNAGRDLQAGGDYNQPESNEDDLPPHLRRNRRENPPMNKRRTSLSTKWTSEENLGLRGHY

[3] = target: T2, Bifunctional protein GlmU (Mycobacterium tuberculosis, UniProt P9WMN3); assay: Inhibitors of Mycobacterial Glucosamine-1-phosphate acetyl transferase (GlmU). Secondary screen.; parameters: species or system Mycobacterium tuberculosis H37Rv
T2 sequence (P9WMN3 whole entry): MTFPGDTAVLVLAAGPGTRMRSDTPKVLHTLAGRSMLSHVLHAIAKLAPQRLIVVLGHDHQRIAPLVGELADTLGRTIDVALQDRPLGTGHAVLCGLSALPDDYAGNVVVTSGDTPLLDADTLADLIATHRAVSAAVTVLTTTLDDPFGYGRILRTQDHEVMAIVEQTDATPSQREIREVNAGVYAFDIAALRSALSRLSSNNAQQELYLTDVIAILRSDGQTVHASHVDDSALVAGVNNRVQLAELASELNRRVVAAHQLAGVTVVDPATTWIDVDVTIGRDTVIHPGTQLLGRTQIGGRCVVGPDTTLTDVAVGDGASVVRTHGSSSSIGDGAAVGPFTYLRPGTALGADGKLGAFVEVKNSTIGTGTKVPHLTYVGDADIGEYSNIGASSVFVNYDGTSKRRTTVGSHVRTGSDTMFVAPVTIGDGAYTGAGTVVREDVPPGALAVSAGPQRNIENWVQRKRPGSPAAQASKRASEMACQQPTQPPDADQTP

[4] = target: T3, RNA-binding protein pos-1 (Caenorhabditis elegans, UniProt G5EF15); assay: inhibitors of POS-1/mex-3 RNA binding, dose response, biochemical, fluorescence polarization (AID 1964);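 note: purified POS-1 fused to maltose binding protein made in E. coli; potency of compounds blocking POS-1 binding to fluorescent RNA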
T3 sequence (G5EF15 whole entry): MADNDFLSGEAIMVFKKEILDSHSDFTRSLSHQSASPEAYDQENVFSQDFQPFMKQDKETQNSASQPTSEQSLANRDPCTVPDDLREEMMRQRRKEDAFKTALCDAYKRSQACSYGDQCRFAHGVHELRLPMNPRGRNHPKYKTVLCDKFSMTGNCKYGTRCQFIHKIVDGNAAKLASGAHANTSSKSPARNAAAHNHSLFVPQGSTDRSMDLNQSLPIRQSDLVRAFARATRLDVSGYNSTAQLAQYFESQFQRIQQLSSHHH

[5] = inhibitors of Bluetongue virus cytopathic effect, confirmation, arbovirus, BSR cells (AID 1250); format: functional;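 note: protection from viral cytopathic effect measured as cell viability by ATP luminescence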
[6] = target: Heat shock protein HSP 90-alpha (Homo sapiens, UniProt P07900); format: functional, organism-based
Oxytocin receptor = Oxytocin receptor (Homo sapiens, UniProt P30559); assay: Counterscreen for vasopressin 1 receptor (V1R) agonists: Fluorescence-based cell-based high throughput dose response assay for agonists of the Oxytocin Receptor (OXTR). [Related pubchem assays: 2435 (Primary screen (OXTR agonists in singlicate)), 434964 (Confirmation screen (V1R agonists in triplicate)), 434969 (Counterscreen (OXTR agonists in …; format: functional
Vasopressin V1a receptor = Vasopressin V1a receptor (Homo sapiens, UniProt P37288); assay: Fluorescence-based cell-based high throughput dose response screening assay for agonists of the vasopressin 1 receptor (V1R).; format: functional
[7] = target: Peroxisome proliferator-activated receptor gamma/Nuclear receptor corepressor 2 (Homo sapiens, UniProt P37231+Q9Y618); assay: Counterscreen for NR2E3 inverse agonists: TR-FRET-based biochemical high throughput dose response assay to identify inverse agonists of the interaction between peroxisome proliferator-activated receptor gamma (PPARg) and nuclear receptor co-repressor 2 (NCOR2).; format: functional
[8] = target: Photoreceptor-specific nuclear receptor (Homo sapiens, UniProt Q9Y5X4); assay: NR2E3 inverse agonists, dose response, biochemical, TR-FRET (AID 463256); format: functional
[9] = cytotoxicity toward NIH3T3 fibroblasts, dose response, counter-screen, cell-based, ATP luminescence, mouse fibroblasts (AID 2010); format: functional;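 note: cells exposed to compound for about 90 hours before reading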
[10] = target: Neuropeptide Y receptor type 1 (Homo sapiens, UniProt P25929); format: functional;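 note: HEK293 cells with a CNG channel challenged with NPY then isoproterenol; potency as antagonist that reverses NPY suppression of cAMP signal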
[11] = target: Neuropeptide Y receptor type 2 (Homo sapiens, UniProt P49146); format: functional, cell-based;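 note: HEK293 cells expressing the receptor and a CNG channel; stimulus was NPY near EC95 followed by isoproterenol to raise cAMP; antagonist potency measured as restoring cAMP signal that NPY suppresses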
[12] = inhibitors of intracellular T. cruzi replication, confirmation, NIH3T3 host cells, beta-gal luminescence (AID 2044); format: functional, cell-based;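 note: intracellular parasites grown in NIH/3T3 mouse fibroblasts as host cells; luminescent beta-galactosidase reporter signal from transgenic T. cruzi replicating inside host cells; inhibitors lower the luminescence signal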
NADPH oxidase 1 = NADPH oxidase 1 (Homo sapiens, UniProt Q9Y5S8); format: functional, cell-based;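 note: Cell-based assay with luminescence read-out, IC50 derived from inhibitor dose-response curves; intracellular ROS from endogenous NOX1 in intact HT29 colon cancer cells; potency of inhibitors that lower the ROS luminescence signal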
Sequence of NADPH oxidase 1 (Q9Y5S8 whole entry): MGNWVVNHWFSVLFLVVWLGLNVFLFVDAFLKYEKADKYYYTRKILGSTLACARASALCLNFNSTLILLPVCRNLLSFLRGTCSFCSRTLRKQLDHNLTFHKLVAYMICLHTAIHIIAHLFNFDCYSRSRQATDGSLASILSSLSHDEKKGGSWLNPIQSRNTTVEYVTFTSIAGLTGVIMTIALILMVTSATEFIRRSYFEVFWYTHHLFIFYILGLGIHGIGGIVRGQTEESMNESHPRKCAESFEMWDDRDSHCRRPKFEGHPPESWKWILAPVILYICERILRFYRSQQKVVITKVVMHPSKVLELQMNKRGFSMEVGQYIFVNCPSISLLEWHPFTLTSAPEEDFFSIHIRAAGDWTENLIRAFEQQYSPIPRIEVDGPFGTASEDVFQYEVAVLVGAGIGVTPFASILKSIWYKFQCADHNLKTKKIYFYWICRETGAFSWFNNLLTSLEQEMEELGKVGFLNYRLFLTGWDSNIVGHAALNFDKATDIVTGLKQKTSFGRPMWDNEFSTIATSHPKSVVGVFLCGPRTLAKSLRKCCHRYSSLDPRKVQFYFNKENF

Sequence of Peroxisome proliferator-activated receptor gamma/Nuclear receptor corepressor 2 (P37231 whole entry): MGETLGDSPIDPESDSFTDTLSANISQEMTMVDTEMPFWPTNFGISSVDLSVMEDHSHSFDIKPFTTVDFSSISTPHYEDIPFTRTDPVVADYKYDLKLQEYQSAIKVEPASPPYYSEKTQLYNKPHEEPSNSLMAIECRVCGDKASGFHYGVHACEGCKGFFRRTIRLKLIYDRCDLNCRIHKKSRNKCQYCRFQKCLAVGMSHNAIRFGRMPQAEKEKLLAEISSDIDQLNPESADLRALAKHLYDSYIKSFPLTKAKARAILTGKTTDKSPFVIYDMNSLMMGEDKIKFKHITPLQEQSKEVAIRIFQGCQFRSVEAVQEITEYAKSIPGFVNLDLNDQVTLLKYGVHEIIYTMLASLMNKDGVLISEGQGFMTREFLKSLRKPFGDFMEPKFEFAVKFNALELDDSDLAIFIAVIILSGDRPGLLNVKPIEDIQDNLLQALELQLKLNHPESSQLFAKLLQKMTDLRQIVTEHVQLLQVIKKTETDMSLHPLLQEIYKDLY
Sequence of Peroxisome proliferator-activated receptor gamma/Nuclear receptor corepressor 2 (Q9Y618 whole entry): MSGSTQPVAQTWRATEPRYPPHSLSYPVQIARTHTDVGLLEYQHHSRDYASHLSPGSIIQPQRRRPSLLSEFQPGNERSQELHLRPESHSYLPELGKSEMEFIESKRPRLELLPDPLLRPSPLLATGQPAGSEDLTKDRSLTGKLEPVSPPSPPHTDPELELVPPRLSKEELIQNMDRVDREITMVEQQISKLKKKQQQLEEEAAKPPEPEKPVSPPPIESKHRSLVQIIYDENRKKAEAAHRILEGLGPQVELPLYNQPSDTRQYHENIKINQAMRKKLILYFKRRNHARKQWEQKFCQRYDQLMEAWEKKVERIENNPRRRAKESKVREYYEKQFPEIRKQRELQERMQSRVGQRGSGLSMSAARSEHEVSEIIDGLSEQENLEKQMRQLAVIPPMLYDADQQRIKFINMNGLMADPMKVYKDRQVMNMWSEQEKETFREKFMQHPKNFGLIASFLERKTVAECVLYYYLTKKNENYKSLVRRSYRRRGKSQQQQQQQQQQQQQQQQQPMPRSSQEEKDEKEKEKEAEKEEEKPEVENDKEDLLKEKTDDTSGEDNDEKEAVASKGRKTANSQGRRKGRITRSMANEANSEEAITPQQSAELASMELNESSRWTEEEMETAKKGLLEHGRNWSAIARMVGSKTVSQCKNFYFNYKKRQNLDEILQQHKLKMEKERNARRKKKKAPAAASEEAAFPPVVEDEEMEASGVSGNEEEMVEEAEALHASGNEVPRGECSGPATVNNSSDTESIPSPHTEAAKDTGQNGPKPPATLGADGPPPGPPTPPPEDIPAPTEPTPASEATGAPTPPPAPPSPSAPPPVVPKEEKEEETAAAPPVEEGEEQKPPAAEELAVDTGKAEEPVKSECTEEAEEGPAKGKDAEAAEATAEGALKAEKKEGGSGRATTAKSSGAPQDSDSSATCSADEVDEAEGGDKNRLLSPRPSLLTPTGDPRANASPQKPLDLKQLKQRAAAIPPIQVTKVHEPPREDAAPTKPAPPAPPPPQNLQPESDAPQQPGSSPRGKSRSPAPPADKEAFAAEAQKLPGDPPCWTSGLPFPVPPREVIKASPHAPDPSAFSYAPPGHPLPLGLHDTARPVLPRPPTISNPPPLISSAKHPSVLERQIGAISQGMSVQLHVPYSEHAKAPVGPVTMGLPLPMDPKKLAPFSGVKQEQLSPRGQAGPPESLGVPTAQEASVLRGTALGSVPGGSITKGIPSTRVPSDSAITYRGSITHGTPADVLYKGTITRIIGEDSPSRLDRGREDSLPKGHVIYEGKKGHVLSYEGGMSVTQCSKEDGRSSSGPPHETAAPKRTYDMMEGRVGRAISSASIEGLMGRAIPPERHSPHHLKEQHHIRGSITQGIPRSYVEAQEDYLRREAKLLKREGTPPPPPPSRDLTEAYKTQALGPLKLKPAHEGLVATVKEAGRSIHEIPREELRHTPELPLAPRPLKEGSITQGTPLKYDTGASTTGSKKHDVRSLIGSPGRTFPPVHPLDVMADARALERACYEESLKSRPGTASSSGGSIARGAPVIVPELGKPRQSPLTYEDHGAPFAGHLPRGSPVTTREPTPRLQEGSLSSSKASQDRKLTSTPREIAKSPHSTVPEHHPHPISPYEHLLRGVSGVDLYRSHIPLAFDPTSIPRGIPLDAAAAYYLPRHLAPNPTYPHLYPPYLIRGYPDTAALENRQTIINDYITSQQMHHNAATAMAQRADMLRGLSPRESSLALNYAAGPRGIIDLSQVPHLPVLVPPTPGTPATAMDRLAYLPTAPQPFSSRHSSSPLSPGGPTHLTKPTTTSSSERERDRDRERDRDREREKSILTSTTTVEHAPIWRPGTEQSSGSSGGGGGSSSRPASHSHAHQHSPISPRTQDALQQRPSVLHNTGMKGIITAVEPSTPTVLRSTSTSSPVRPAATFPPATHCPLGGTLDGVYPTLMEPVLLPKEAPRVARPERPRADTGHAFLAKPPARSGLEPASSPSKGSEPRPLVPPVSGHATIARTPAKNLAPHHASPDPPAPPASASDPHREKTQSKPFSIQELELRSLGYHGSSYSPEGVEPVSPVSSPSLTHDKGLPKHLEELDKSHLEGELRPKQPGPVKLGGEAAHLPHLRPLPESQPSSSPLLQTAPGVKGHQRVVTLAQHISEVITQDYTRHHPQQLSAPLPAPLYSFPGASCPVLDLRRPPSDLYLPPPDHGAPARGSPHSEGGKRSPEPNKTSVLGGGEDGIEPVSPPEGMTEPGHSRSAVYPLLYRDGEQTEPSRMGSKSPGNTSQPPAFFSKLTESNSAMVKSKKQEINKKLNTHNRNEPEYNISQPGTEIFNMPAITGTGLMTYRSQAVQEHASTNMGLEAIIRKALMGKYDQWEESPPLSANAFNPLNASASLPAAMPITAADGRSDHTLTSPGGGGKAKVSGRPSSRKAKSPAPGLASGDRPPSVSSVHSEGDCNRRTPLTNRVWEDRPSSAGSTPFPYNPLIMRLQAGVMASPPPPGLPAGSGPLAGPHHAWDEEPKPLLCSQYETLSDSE
Sequence of Oxytocin receptor (P30559 whole entry): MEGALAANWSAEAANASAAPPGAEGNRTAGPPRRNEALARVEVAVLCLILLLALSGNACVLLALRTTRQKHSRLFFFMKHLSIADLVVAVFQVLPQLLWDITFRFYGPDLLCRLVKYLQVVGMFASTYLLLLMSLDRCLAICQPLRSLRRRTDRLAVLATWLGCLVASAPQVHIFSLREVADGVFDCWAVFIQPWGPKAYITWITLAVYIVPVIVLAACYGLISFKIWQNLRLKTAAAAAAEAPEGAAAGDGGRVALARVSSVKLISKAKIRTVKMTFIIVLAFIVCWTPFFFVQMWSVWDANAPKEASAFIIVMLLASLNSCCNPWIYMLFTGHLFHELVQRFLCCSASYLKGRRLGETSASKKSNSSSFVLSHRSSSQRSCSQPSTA
Sequence of Neuropeptide Y receptor type 2 (P49146 whole entry): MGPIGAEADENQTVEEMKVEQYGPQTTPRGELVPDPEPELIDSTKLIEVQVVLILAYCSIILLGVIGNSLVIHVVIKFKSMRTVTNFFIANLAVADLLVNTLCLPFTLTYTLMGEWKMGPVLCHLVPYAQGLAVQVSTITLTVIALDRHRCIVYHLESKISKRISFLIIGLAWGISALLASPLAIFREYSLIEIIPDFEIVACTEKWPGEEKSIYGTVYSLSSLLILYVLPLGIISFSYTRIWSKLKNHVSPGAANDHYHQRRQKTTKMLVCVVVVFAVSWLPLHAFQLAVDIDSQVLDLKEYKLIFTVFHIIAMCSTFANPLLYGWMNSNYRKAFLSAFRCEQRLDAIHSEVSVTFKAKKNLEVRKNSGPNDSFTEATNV
Sequence of Neuropeptide Y receptor type 1 (P25929 whole entry): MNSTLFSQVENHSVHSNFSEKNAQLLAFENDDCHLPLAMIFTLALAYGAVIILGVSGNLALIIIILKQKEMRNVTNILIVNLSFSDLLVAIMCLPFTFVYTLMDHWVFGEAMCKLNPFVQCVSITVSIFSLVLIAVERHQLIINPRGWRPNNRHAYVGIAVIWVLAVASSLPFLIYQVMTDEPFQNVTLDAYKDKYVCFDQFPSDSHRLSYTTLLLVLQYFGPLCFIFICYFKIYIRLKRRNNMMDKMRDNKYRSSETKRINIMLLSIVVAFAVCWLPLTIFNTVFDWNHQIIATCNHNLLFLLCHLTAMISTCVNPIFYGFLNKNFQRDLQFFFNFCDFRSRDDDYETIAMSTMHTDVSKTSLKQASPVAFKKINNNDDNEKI
Sequence of Calpain-2 catalytic subunit (P43367 whole entry): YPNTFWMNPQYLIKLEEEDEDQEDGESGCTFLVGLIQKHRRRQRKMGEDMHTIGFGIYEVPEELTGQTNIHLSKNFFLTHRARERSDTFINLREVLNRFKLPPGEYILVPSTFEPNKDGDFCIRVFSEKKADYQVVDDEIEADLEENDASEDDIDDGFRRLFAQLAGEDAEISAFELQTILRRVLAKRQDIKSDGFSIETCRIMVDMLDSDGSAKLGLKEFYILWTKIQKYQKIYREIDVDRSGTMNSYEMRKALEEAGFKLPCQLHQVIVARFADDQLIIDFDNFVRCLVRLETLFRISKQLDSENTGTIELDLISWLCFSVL

Compound: C=CCNC(=S)N/N=C/c1cccc([N+](=O)[O-])c1
- IC50 [1]: 6.63 µM (active)

Compound: Cc1cc(/C=c2\sc3nc4ccccc4n3c2=O)c(C)n1-c1ccc(C(=O)O)cc1
- EC50 [2]: > 300 µM (not active)
- IC50 [3]: 171 µM (active)
- EC50 [4]: > 300 µM (not active)
- IC50 [5]: 25.8 µM (active)
- AC50 [6]: 24.5 µM (active)

Compound: CCN(CC)c1ccc2cc(C(N)=O)/c(=N\NC(=O)c3ccncc3)oc2c1
- EC50 (Oxytocin receptor): 21.8 µM (not active)
- EC50 (Vasopressin V1a receptor): 18.6 µM (not active)

Compound: Cc1ccc2oc(=O)cc(CN3CCCCC3)c2c1
- IC50 [7]: > 39.8 µM (not active)
- IC50 [8]: 7.54 µM (active)

Compound: Cc1ccccc1N1CCN(CCCOc2ccc3c(C)cc(=O)oc3c2)CC1
- EC50 [9]: 9.32 µM (active)
- IC50 [10]: > 35 µM (not active)
- IC50 [11]: > 35 µM (not active)
- EC50 [12]: 124 nM (active)

Compound: COc1ccc(/C=N/Nc2c(Cl)cncc2Cl)c(OC)c1OC
- IC50 (NADPH oxidase 1): > 17 µM (not active)

From ChEMBL document CHEMBL1201862, “PubChem BioAssay data set” (2004)
